Patent US9670227B2, “Thienopyrimidine derivatives, a process for their preparation and pharmaceutical compositions containing them” (LES LABORATOIRES SERVIER, priority 2013, dated 2017)
Where two headings read alike, the source gives them in different places.

What was measured:
Mcl-1 protein = Mcl-1 protein (UniProtKB primary accession number: Q07820) (Homo sapiens, UniProt Q07820); assay: Inhibition of Mcl-1 by fluorescence polarisation, Method 1; type: binding; conditions: fluorescence polarisation test; Method 2 values are underlined in the patent (underlining not visible here); read-out: IC50 (M) Mcl-1 FP
Mcl-1 protein, sequence (Q07820 whole entry): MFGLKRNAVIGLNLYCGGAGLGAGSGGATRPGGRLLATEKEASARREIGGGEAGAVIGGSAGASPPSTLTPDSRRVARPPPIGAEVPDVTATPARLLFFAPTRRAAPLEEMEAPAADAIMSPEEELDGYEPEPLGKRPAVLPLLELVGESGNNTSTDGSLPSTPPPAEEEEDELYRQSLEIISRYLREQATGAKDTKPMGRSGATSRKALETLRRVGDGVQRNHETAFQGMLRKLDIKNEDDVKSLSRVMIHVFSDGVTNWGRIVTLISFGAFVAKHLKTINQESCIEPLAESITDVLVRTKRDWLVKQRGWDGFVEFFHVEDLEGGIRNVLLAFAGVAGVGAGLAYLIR
Outline: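 FP readout of relative binding potency. Mcl-1 5 nM final, fluorescein-labelled ligand 1 nM final; buffer 10 mM HEPES, 150 mM NaCl, 0.05% Tween 20, pH 7.4; 11-pt dilution series, 5% DMSO final.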

[1] = test system: H929 multiple myeloma tumour line; assay: In vitro cytotoxicity, Microculture Tetrazolium Assay; type: cell-based; conditions: H929 cells, 48 hours exposure, MTT, read-out: IC50 (μM) MTT H929
Procedure: The cytotoxicity studies were carried out on the H929 multiple myeloma tumour line.
The cells are distributed onto microplates and exposed to the test compounds for 48 hours.

[2] = test system: AMO-1 multiple myeloma cells; assay: Quantification of the cleaved form of PARP in vivo (MSD ELISA, tumour lysates); parameters: species or system mice (SCID strain); conditions: activation factor: cleaved PARP in treated mice / control mice, AMO-1 xenograft in SCID mice, intraveinous or oral routes
Procedure: The ability of the compounds of the invention to induce apoptosis, by measuring cleaved PARP levels, is evaluated in a xenograft model of AMO-1 multiple myeloma cells. 1.10^7 AMO-1 cells are grafted sub-cutaneously into immunosuppressed mice (SCID strain). 12 to 14 days after the graft, the animals are treated by intraveinous or oral routes with the various compounds. After treatment, the tumour masses are recovered and lysed, and the cleaved form of PARP is quantified in the tumour lysates.
The quantification is carried out using the “Meso Scale Discovery (MSD) ELISA platform” test, which specifically assays the cleaved form of PARP. It is expressed in the form of an activation factor corresponding to the ratio between the quantity of cleaved PARP in the treated mice divided by the quantity of cleaved PARP in the control mice.

| SMILES | IC50 (Mcl-1 protein) [M] | IC50 ([1]; Homo sapiens, NCI-H929, 48 h) [µM] | PARP fold [2] [fold] | IC50 [1] [µM] |
| --- | --- | --- | --- | --- |
| CCCc1nccc(COc2ccccc2CC(Oc2ncnc3sc(-c4ccc(F)cc4)c(-c4ccc(OCCN5CCN(C)CC5)c(Cl)c4C)c23)C(=O)O)n1 [Example 41, (2R)-2-{[(5Sa)-5-{3-chloro-2-methyl-4-[2-(4-methylpiperazin-1-yl)ethoxy]phenyl}-6-(4-fluorophenyl)thieno[2,3-d]pyrimidin-4-yl]oxy}-3-{2-[(2-propylpyrimidin-4-yl)methoxy]phenyl}propanoic acid] | 2.9e-09 | 0.007 | 288.1 |  |
| COCCNc1nccc(COc2ccccc2CC(Oc2ncnc3sc(-c4ccc(F)cc4)c(-c4ccc(OCCN5CCN(C)CC5)c(Cl)c4C)c23)C(=O)O)n1 [Example 53, (2R)-2-{[(5Sa)-5-{3-chloro-2-methyl-4-[2-(4-methylpiperazin-1-yl)ethoxy]phenyl}-6-(4-fluorophenyl)thieno[2,3-d]pyrimidin-4-yl]oxy}-3-[2-({2-[(2-methoxyethyl)amino]pyrimidin-4-yl}methoxy)phenyl]propanoic acid] | 3.4e-09 | 0.015 | 178.7 |  |
| Cc1c(-c2c(-c3ccc(F)cc3)sc3ncnc(OC(Cc4ccccc4OCc4ccnc(OC(C)C)n4)C(=O)O)c23)ccc(OCCN2CCN(C)CC2)c1Cl [Example 55, (2R)-2-{[(5Sa)-5-{3-chloro-2-methyl-4-[2-(4-methylpiperazin-1-yl)ethoxy]phenyl}-6-(4-fluorophenyl)thieno[2,3-d]pyrimidin-4-yl]oxy}-3-(2-{[2-(propan-2-yloxy)pyrimidin-4-yl]methoxy}phenyl)propanoic acid] | 5.8e-09 | 0.007 | 188.4 |  |
| Cc1c(-c2c(-c3ccc(F)cc3)sc3ncnc(OC(Cc4ccccc4OCc4ccnc(OCCC(F)(F)F)n4)C(=O)O)c23)ccc(OCCN2CCN(C)CC2)c1Cl [Example 62, (2R)-2-{[(5Sa)-5-{3-chloro-2-methyl-4-[2-(4-methylpiperazin-1-yl)ethoxy]phenyl}-6-(4-fluorophenyl)thieno[2,3-d]pyrimidin-4-yl]oxy}-3-(2-{[2-(3,3,3-trifluoropropoxy)pyrimidin-4-yl]methoxy}phenyl)propanoic acid] | 3.9e-09 | 0.008 | 391.6 |  |
| COCCOc1nccc(COc2ccccc2CC(Oc2ncnc3sc(-c4ccc(F)cc4)c(-c4ccc(OCCN5CCN(C)CC5)c(Cl)c4C)c23)C(=O)O)n1 [Example 63, (2R)-2-{[(5Sa)-5-{3-chloro-2-methyl-4-[2-(4-methylpiperazin-1-yl)ethoxy]phenyl}-6-(4-fluorophenyl)thieno[2,3-d]pyrimidin-4-yl]oxy}-3-(2-{[2-(2-methoxyethoxy)pyrimidin-4-yl]methoxy}phenyl)propanoic acid] | 4.5e-09 | 0.009 | 177.8 |  |
| CCCCn1nncc1COc1ccccc1CC(Oc1ncnc2sc(-c3ccc(F)cc3)c(-c3ccc(OCCN4CCN(C)CC4)c(Cl)c3C)c12)C(=O)O [Example 95, (2R)-3-{2-[(1-butyl-1H-1,2,3-triazol-5-yl)methoxy]phenyl}-2-{[(5Sa)-5-{3-chloro-2-methyl-4-[2-(4-methylpiperazin-1-yl)ethoxy]phenyl}-6-(4-fluorophenyl)thieno[2,3-d]pyrimidin-4-yl]oxy}propanoic acid] | 4.2e-09 | 0.022 | 156.8 |  |
| Cc1cc(-c2nccc(COc3ccccc3CC(Oc3ncnc4sc(-c5ccc(F)cc5)c(-c5ccc(OCCN6CCN(C)CC6)c(Cl)c5C)c34)C(=O)O)n2)ccn1 [Example 118, (2R)-2-{[(5Sa)-5-{3-chloro-2-methyl-4-[2-(4-methylpiperazin-1-yl)ethoxy]phenyl}-6-(4-fluorophenyl)thieno[2,3-d]pyrimidin-4-yl]oxy}-3-(2-{[2-(2-methylpyridin-4-yl)pyrimidin-4-yl]methoxy}phenyl)propanoic acid] | 5.5e-09 | 0.006 | 159.8 |  |
| Cc1ccncc1-c1nccc(COc2ccccc2CC(Oc2ncnc3sc(-c4ccc(F)cc4)c(-c4ccc(OCCN(C)C)c(Cl)c4C)c23)C(=O)O)n1 [Example 138, (2R)-2-{[(5Sa)-5-{3-chloro-4-[2-(dimethylamino)ethoxy]-2-methylphenyl}-6-(4-fluorophenyl)thieno[2,3-d]pyrimidin-4-yl]oxy}-3-(2-{[2-(4-methylpyridin-3-yl)pyrimidin-4-yl]methoxy}phenyl)propanoic acid] | 8.9e-09 | 0.013 | 333.9 |  |

Further lines, with some results ahead:

| IC50 (Mcl-1 protein) [M] | SMILES | IC50 ([1]; Homo sapiens, NCI-H929, 48 h) [µM] | PARP fold [2] [fold] | IC50 [1] [µM] |
| --- | --- | --- | --- | --- |
| 6.7e-09 | COCc1nccc(COc2ccccc2CC(Oc2ncnc3sc(-c4ccc(F)cc4)c(-c4ccc(OCCN5CCN(C)CC5)c(Cl)c4C)c23)C(=O)O)n1 [Example 45, (2R)-2-{[(5Sa)-5-{3-chloro-2-methyl-4-[2-(4-methylpiperazin-1-yl)ethoxy]phenyl}-6-(4-fluorophenyl)thieno[2,3-d]pyrimidin-4-yl]oxy}-3-(2-{[2-(methoxymethyl)pyrimidin-4-yl]methoxy}phenyl)propanoic acid] | 0.009 | 194.3 |  |
| 7.8e-09 | CCOCc1nccc(COc2ccccc2C[C@@H](Oc2ncnc3sc(-c4ccc(F)cc4)c(-c4ccc(OCCN5CCN(C)CC5)c(Cl)c4C)c23)C(=O)O)n1 [Example 47, (2R)-2-{[(5Sa)-5-{3-chloro-2-methyl-4-[2-(4-methylpiperazin-1-yl)ethoxy]phenyl}-6-(4-fluorophenyl)thieno[2,3-d]pyrimidin-4-yl]oxy}-3-(2-{[2-(ethoxymethyl)pyrimidin-4-yl]methoxy}phenyl)propanoic acid] |  | 101.1 | 0.005 |
| 2.5e-09 | Cc1c(-c2c(-c3ccc(F)cc3)sc3ncnc(OC(Cc4ccccc4OCc4ccnc(-n5cccn5)n4)C(=O)O)c23)ccc(OCCN2CCN(C)CC2)c1Cl [Example 49, (2R)-2-{[(5Sa)-5-{3-chloro-2-methyl-4-[2-(4-methylpiperazin-1-yl)ethoxy]phenyl}-6-(4-fluorophenyl)thieno[2,3-d]pyrimidin-4-yl]oxy}-3-(2-{[2-(1H-pyrazol-1-yl)pyrimidin-4-yl]methoxy}phenyl)propanoic acid] | 0.012 | 180.5 |  |
| 5e-09 | CCOc1nccc(COc2ccccc2CC(Oc2ncnc3sc(-c4ccc(F)cc4)c(-c4ccc(OCCN5CCN(C)CC5)c(Cl)c4C)c23)C(=O)O)n1 [Example 57, (2R)-2-{[(5Sa)-5-{3-chloro-2-methyl-4-[2-(4-methylpiperazin-1-yl)ethoxy]phenyl}-6-(4-fluorophenyl)thieno[2,3-d]pyrimidin-4-yl]oxy}-3-{2-[(2-ethoxypyrimidin-4-yl)methoxy]phenyl}propanoic acid] | 0.008 | 198.3 |  |
| 4e-09 | Cc1c(-c2c(-c3ccc(F)cc3)sc3ncnc(OC(Cc4ccccc4OCc4ccnc(OCC(F)(F)F)n4)C(=O)O)c23)ccc(OCCN2CCN(C)CC2)c1Cl [Example 58, (2R)-2-{[(5Sa)-5-{3-chloro-2-methyl-4-[2-(4-methylpiperazin-1-yl)ethoxy]phenyl}-6-(4-fluorophenyl)thieno[2,3-d]pyrimidin-4-yl]oxy}-3-(2-{[2-(2,2,2-trifluoroethoxy)pyrimidin-4-yl]methoxy}phenyl)propanoic acid] | 0.01 | 181.9 |  |
| 2.1e-09 | Cc1c(-c2c(-c3ccc(F)cc3)sc3ncnc(OC(Cc4ccccc4OCc4ccnc(-c5ccccc5F)n4)C(=O)O)c23)ccc(OCCN2CCN(C)CC2)c1Cl [Example 114, (2R)-2-{[(5Sa)-5-{3-chloro-2-methyl-4-[2-(4-methylpiperazin-1-yl)ethoxy]phenyl}-6-(4-fluorophenyl)thieno[2,3-d]pyrimidin-4-yl]oxy}-3-(2-{[2-(2-fluorophenyl)pyrimidin-4-yl]methoxy}phenyl)propanoic acid] | 0.005 | 158.2 |  |
| 4.6e-09 | Cc1c(-c2c(-c3ccc(F)o3)sc3ncnc(OC(Cc4ccccc4OCc4ccnc(C(F)(F)F)c4)C(=O)O)c23)ccc(OCCN2CCN(C)CC2)c1Cl [Example 167, (2R)-2-{[(5Sa)-5-{3-chloro-2-methyl-4-[2-(4-methylpiperazin-1-yl)ethoxy]phenyl}-6-(5-fluorofuran-2-yl)thieno[2,3-d]pyrimidin-4-yl]oxy}-3-(2-{[2-(trifluoromethyl)pyridin-4-yl]methoxy}phenyl)propanoic acid] | 0.01 | 230.1 |  |
| 2.8e-09 | COc1cc(COc2ccccc2CC(Oc2ncnc3sc(-c4ccc(F)o4)c(-c4ccc(OCCN5CCN(C)CC5)c(Cl)c4C)c23)C(=O)O)ccn1 [Example 168, (2R)-2-{[(5Sa)-5-{3-chloro-2-methyl-4-[2-(4-methylpiperazin-1-yl)ethoxy]phenyl}-6-(5-fluorofuran-2-yl)thieno[2,3-d]pyrimidin-4-yl]oxy}-3-{2-[(2-methoxypyridin-4-yl)methoxy]phenyl}propanoic acid] | 0.025 | 179.2 |  |
